Test results: patent US10577349B2 (Sanford Burnham Prebys Medical Discovery Institute, priority 2015, dated 2020)

Legend:
A375 = test: 48 h Cytotoxicity A375; type: cell-based; conditions: Homo sapiens, A-375
[1] = target: EmCV Cap-dependent translation; test: In vitro translation assay, FF-EmCV-Ren construct, cap-dependent (FF luciferase); type: biochemical, rabbit reticulocyte lysates
Outline: (§1)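 Rabbit reticulocyte lysate with -Met/-Leu translation mixes (1:1) was pre-incubated with compounds 1 h at room temperature, then programmed with 0.1 μg bicistronic RNA per well and translated 2 h at 30° C. FF luciferase (cap-dependent) and then Ren luciferase (IRES-driven) were read by Dual-Glo luminescence.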

[2] = target: EmCV Cap-independent translation; test: In vitro translation assay, FF-EmCV-Ren construct, cap-independent (Ren luciferase); type: biochemical, rabbit reticulocyte lysates
Outline: as §1

[3] = target: HCV cap-dependent translation; test: In vitro translation assay, FF-HCV-Ren construct, cap-dependent (FF luciferase); type: biochemical, rabbit reticulocyte lysates
Outline: as §1

[4] = target: HCV cap-independent translation; test: In vitro translation assay, FF-HCV-Ren construct, cap-independent (Ren luciferase); type: biochemical, rabbit reticulocyte lysates
Outline: as §1

Row | Compound | IC50 (A375) [µM] | IC50 [1] [µM] | IC50 [2] [µM] | IC50 [3] [µM] | IC50 [4] [µM]
1 | O=C(/C(Br)=C\c1cncc(F)c1)c1c(-c2ccccc2)c2cc(Cl)ccc2[nH]c1=O [Compound 111, 3-[(2E)-2-bromo-3-(5-fluoro(3-pyridyl))prop-2-enoyl]-6-chloro-4-phenylhydroquinolin-2-one] | 2 to 10 | 2 to 10 | 2 to 10 | 2 to 10 | 2 to 10
2 | O=C(/C=C/c1cncc(F)c1)c1c(-c2ccc(Br)cc2)c2cc(Cl)ccc2[nH]c1=O [Compound 91, 3-[(2E)-3-(5-fluoro(3-pyridyl))prop-2-enoyl]-4-(4-bromophenyl)-6-chlorohydroquinolin-2-one] | 2 to 10 | 2 to 10 | 2 to 10 | 2 to 10 | 2 to 10
3 | O=C(/C=C/c1ccccc1)c1c(-c2cccs2)c2cc(Cl)ccc2[nH]c1=O [Compound 10] | > 20 | 2 to 10 | 2 to 10 | 10 to 20 | 2 to 10
4 | O=C(/C=C/c1cncnc1)c1c(-c2ccccc2)c2cc(Cl)ccc2[nH]c1=O [Compound 37, 6-Chloro-4-phenyl-3-(3-pyrimidin-5-yl-acryloyl)-1H-quinolin-2-one] | 2 to 10 | 2 to 10 | 2 to 10 | 2 to 10 | 2 to 10
5 | O=C(/C=C/c1cncc(F)c1)c1c(-c2ccc(Cl)cc2)c2cc(Cl)ccc2[nH]c1=O [Compound 81, 3-[(2E)-3-(5-fluoro(3-pyridyl))prop-2-enoyl]-6-chloro-4-(4-chlorophenyl)hydroquinolin-2-one] | 2 to 10 | 2 to 10 | 2 to 10 | 2 to 10 | 2 to 10
6 | O=C(/C=C/c1cccnc1)c1c(-c2ccccc2)c2cc(Cl)ccc2[nH]c1=O [Compound 32, 6-Chloro-4-phenyl-3-(3-pyridin-3-yl-acryloyl)-1H-quinolin-2-one] | < 2 | 2 to 10 | 2 to 10 | 2 to 10 | 2 to 10
7 | COc1ccnc(/C=C/C(=O)c2c(-c3ccccc3)c3cc(Cl)ccc3[nH]c2=O)c1 [Compound 75, 3-[(2E)-3-(4-methoxy(2-pyridyl))prop-2-enoyl]-6-chloro-4-phenylhydroquinolin-2-one] | < 2 | 2 to 10 | 2 to 10 | 2 to 10 | 2 to 10
8 | O=C(/C=C/c1ccc(Cl)s1)c1c(-c2ccccc2)c2cc(Cl)ccc2[nH]c1=O [Compound 113, 6-Chloro-3-[3-(5-chloro-thiophen-2-yl)-acryloyl]-4-phenyl-1H-quinolin-2-one] | 2 to 10 | 2 to 10 | 2 to 10 | 2 to 10 | 2 to 10
9 | O=C(/C=C/c1cncc(F)c1)c1c(-c2ccc(OC(F)(F)F)cc2)c2cc(Cl)ccc2[nH]c1=O [Compound 87, 3-[(2E)-3-(5-fluoro(3-pyridyl))prop-2-enoyl]-6-chloro-4-[4-(trifluoromethoxy)phenyl]hydroquinolin-2-one] | 2 to 10 | 2 to 10 | 2 to 10 | 2 to 10 | 2 to 10
10 | O=C(/C=C/c1nc2ccccc2n1Cc1ccccc1)c1c(-c2ccccc2)c2cc(Cl)ccc2n(Cc2ccccc2)c1=O [Compound 56, 1-benzyl-3-[3-(1-benzyl-1H-benzoimidazol-2-yl)-acryloyl]-6-chloro-4-phenyl-1H-quinolin-2-one] | 2 to 10 | 2 to 10 | > 20 | 10 to 20 | 2 to 10
11 | O=C(/C=C/c1ccsc1)c1c(-c2ccccc2)c2cc(Cl)ccc2[nH]c1=O [Compound 27, 6-Chloro-4-phenyl-3-(3-thiophen-3-yl-acryloyl)-1H-quinolin-2-one] | 2 to 10 | 2 to 10 | 2 to 10 | 2 to 10 | 2 to 10
12 | CCn1c(/C=C/C(=O)c2c(-c3ccccc3)c3cc(Cl)ccc3n(CC)c2=O)nc2ccccc21 [Compound 60, (E)-6-chloro-1-ethyl-3-(3-(1-ethyl-1H-benzo[d]imidazol-2-yl)acryloyl)-4-phenylquinolin-2(1H)-one] | 2 to 10 | > 20 | > 20 | 10 to 20 | 10 to 20
13 | O=C(/C=C/c1nc2ccccc2[nH]1)c1c(-c2ccccc2)c2ccncc2[nH]c1=O [Compound 22, 3-(3-1H-Benzoimidazol-2-yl-acryloyl)-4-phenyl-1H-[1,7]naphthyridin-2-one] | > 20 | 10 to 20 | 10 to 20 | 10 to 20 | 10 to 20
14 | O=C(/C=C/c1cncc(F)c1)c1c(-c2cncc(Br)c2)c2cc(Cl)ccc2[nH]c1=O [Compound 103, (E)-4-(5-Bromo-pyridin-3-yl)-6-chloro-3-[3-(5-fluoro-pyridin-3-yl)-acryloyl]-1H-quinolin-2-one] | 2 to 10 | 2 to 10 | 2 to 10 | 10 to 20 | 2 to 10
15 | O=C(/C=C/c1nc2ccccc2[nH]1)c1c(-c2ccccn2)c2cc(Cl)ccc2[nH]c1=O [Compound 8, 3-(3-1H-Benzoimidazol-2-yl-acryloyl)-6-chloro-4-pyridin-2-yl-1H-quinolin-2-one] | 10 to 20 | > 20 | > 20 | > 20 | > 20
16 | O=C(/C=C/c1ccccn1)c1c(-c2ccc(Br)cc2)c2cc(Cl)ccc2[nH]c1=O [Compound 92, 3-((2E)-3-(2-pyridyl)prop-2-enoyl)-4-(4-bromophenyl)-6-chlorohydroquinolin-2-one] | < 2 | 2 to 10 | 2 to 10 | 2 to 10 | 2 to 10
17 | Cn1ccc2cc(/C=C/C(=O)c3c(-c4ccccc4)c4cc(Cl)ccc4[nH]c3=O)ccc21 [Compound 30, 6-Chloro-3-[3-(1-methyl-1H-indol-5-yl)-acryloyl]-4-phenyl-1H-quinolin-2-one] | 2 to 10 | > 20 | > 20 | > 20 | > 20
18 | CCOC(=O)c1cncc(-c2c(C(=O)/C=C/c3ccccn3)c(=O)[nH]c3ccc(Cl)cc23)c1 [Compound 107, Ethyl 5-[3-((2E)-3-(2-pyridyl)prop-2-enoyl)-6-chloro-2-oxo-4-hydroquinolyl]pyridine-3-carboxylate] | 2 to 10 | > 20 | 10 to 20 | 10 to 20 | 10 to 20
19 | O=C(/C=C/c1ccccn1)c1c(-c2cncc(Br)c2)c2cc(Cl)ccc2[nH]c1=O [Compound 104, 3-((2E)-3-(2-pyridyl)prop-2-enoyl)-4-(5-bromo(3-pyridyl))-6-chlorohydroquinolin-2-one] | 2 to 10 | 2 to 10 | 2 to 10 | 10 to 20 | 2 to 10
20 | O=C(/C=C/c1ccccn1)c1c(-c2ccc(F)cc2)c2cc(Cl)ccc2[nH]c1=O [Compound 78, (E)-6-Chloro-4-(4-fluoro-phenyl)-3-(3-pyridin-2-yl-acryloyl)-1H-quinolin-2-one] | < 2 | 2 to 10 | 2 to 10 | 2 to 10 | 2 to 10
21 | COc1ccc2[nH]c(/C=C/C(=O)c3c(-c4ccccc4)c4cc(Cl)ccc4[nH]c3=O)nc2c1 [Compound 65, 6-Chloro-3-[3-(5-methoxy-1H-benzoimidazol-2-yl)-acryloyl]-4-phenyl-1H-quinolin-2-one] | < 2 | 2 to 10 | 2 to 10 | 2 to 10 | 2 to 10
22 | O=C(/C=C/c1nc2ccccc2[nH]1)c1c(-c2ccccc2)c2cc(F)ccc2[nH]c1=O [Compound 20, 3-(3-1H-Benzoimidazol-2-yl-acryoyl)-6-fluoro-4-phenyl-1H-quinolin-2-one] | < 2 | 10 to 20 | > 20 | 10 to 20 | > 20
23 | O=C(/C=C/c1ccccn1)c1c(-c2cncc(F)c2)c2cc(Cl)ccc2[nH]c1=O [Compound 100, 3-((2E)-3-(2-pyridyl)prop-2-enoyl)-6-chloro-4-(5-fluoro(3-pyridyl))hydroquinolin-2-one] | 2 to 10 | 10 to 20 | 10 to 20 | 10 to 20 | 10 to 20
24 | CN(C)c1ccc(/C=C/C(=O)c2c(-c3ccccc3)c3cc([N+](=O)[O-])ccc3[nH]c2=O)cc1 [Compound 17, 3-[3-(4-Dimethylamino-phenyl)-acryloyl]-6-nitro-4-phenyl-1H-quinolin-2-one] | > 20 | > 20 | > 20 | > 20 | > 20
25 | O=C(/C=C/c1ccc(C(F)(F)F)cc1)c1c(-c2ccccc2)c2cc(Cl)ccc2[nH]c1=O [Compound 39, 6-Chloro-4-phenyl-3-[3-(4-trifluoromethyl-phenyl)-acryloyl]-1H-quinolin-2-one] | 2 to 10 | 2 to 10 | 2 to 10 | 10 to 20 | 10 to 20
26 | O=C(/C=C/c1cncc(C(F)(F)F)c1)c1c(-c2ccccc2)c2cc(Cl)ccc2[nH]c1=O [Compound 76, 3-{(2E)-3-[5-(trifluoromethyl)(3-pyridyl)]prop-2-enoyl}-6-chloro-4-phenylhydroquinolin-2-one] | < 2 | 2 to 10 | 2 to 10 | 2 to 10 | 2 to 10
27 | Cc1ccnc(C#CC(=O)c2c(-c3ccccc3)c3cc(Cl)ccc3[nH]c2=O)c1 [Compound 112, 6-Chloro-3-[3-(4-methyl-pyridin-2-yl)-propynoyl]-4-phenyl-1H-quinolin-2-one] | > 20 | > 20 | > 20 | > 20 | > 20
